Here are results for 5 compounds from ChEMBL document CHEMBL1154283, “Chrotacumines A-D, chromone alkaloids from Dysoxylum acutangulum” (J Nat Prod, 2009).

Usually pIC50 stands for the IC50 on a negative log10 scale, so that one unit is a factor of ten. A low value points to a large IC50.

Structures are written as SMILES. pIC50: −log10 of the molar value.

Holding throughout (assay type): functional, cell-based
In one assay the test system is HL-60. Nature of the assay: Cytotoxicity against human HL60 cells after 48 hrs by MTT assay. As to conditions: HL-60, 48 h. (Tetrazolium dyes change colour on reduction, which living cells bring about.)
Another assay concerns HCT-116. Nature of the assay: Cytotoxicity against human HCT116 cells after 48 hrs by MTT assay. As to conditions: HCT-116, 48 h.
The next assay concerns NCI-H226. Nature of the assay: Cytotoxicity against human NCI-H226 cells after 48 hrs by MTT assay. As to conditions: NCI-H226, 48 h.
In a further assay the test system is MCF7. Nature of the assay: Cytotoxicity against human MCF7 cells after 48 hrs by MTT assay. As to conditions: MCF7, 48 h.
The test system of the next assay is A549. Nature of the assay: Cytotoxicity against human A549 cells after 48 hrs by MTT assay. To be noted: A549, 48 h.

For `Cc1cc(=O)c2c(O)cc(O)c([C@H]3CCN(C)C[C@H]3O)c2o1` [ROHITUKINE], the pIC50 is 5.12 in the assay with HL-60; 5.06 with HCT-116; less than 5.00 in the assay with NCI-H226; less than 5.00 in the assay on MCF7; less than 5.00 in the assay with A549.
In the assay on HL-60, `COc1cc(C(=O)O[C@@H]2CN(C)CC[C@@H]2c2c(O)cc(O)c3c(=O)cc(C)oc23)cc(OC)c1OC` [CHROTACUMINE C] gave a pIC50 of less than 5.00.
In turn, `C/C=C(\C)C(=O)O[C@@H]1CN(C)CC[C@@H]1c1c(O)cc(O)c2c(=O)cc(C)oc12` [CHROTACUMINE B] showed a pIC50 with HL-60 of less than 5.00.
In the assay with HL-60, `COc1ccc(C(=O)O[C@@H]2CN(C)CC[C@@H]2c2c(O)cc(O)c3c(=O)cc(C)oc23)cc1OC` [CHROTACUMINE D] gave a pIC50 of less than 5.00.
Still for that read-out and setting: as for `Cc1cc(=O)c2c(O)cc3c(c2o1)[C@@H]1C[C@H](O3)N(C)C[C@H]1OC(=O)c1ccccc1` [CHROTACUMINE A], the figure is less than 5.00.
